Assay results reported in patent US20170050966A1, “INHIBITING THE TRANSIENT RECEPTOR POTENTIAL A1 ION CHANNEL” (HYDRA BIOSCIENCES, INC., priority 2014, published 2017).
Like-named read-outs stand apart in the source and are kept apart here.

Key:
[1] = Plasma protein binding, equilibrium dialysis; assay type: in vitro ADME; conditions: pooled K2EDTA plasma, read-out: Mean % Bound ± SD (converted)
Method: With this method, free compound is separated from protein-bound compound by dialysis across a semi-permeable membrane.
The protein binding was tested at a concentration of 1 μM. Pooled human, cynomolgus monkey, dog, and rat K2EDTA plasma was thawed and centrifuged at 2000×g for 10 minutes at 4° C. to remove particulates; any lipid on the top of the supernatant was also removed by aspiration. The plasma was warmed to 37° C. for 10 minutes before use. Test compounds were spiked into 2 ml plasma in a polypropylene plate to a final concentration of 1 μM. Triplicate 400 μl aliquots of spiked plasma were transferred into the Thermo RED dialysis units and dialyzed against 600 μl of PBS buffer. […] After 6 hours dialysis, triplicate 50 μl aliquots were removed from the RED plate, matrix-matched with either PBS buffer or blank plasma, as appropriate, and quenched with 4 volumes of ACN containing an internal standard. The extracted samples were then centrifuged at 2000×g for 5 minutes at 4° C. The supernatant (50 μl) was removed and diluted with 100 μl water prior to LC/MS/MS bioanalysis.

[2] = molecular target: T1, mTRPA1 (Mus musculus, UniProt Q8BLA8); assay: TRPA1 IC50, whole-cell patch clamp; assay type: cell-based; conditions: mTRPA1, 10 μM AITC; read-out: IC50 Inward current
T1 construct: expressed in transfected cells

[3] = Oral PK and bioavailability of micronized Compound 2 suspension; assay type: in vivo, dogs (beagles); conditions: fasted dogs
Method: Additional studies were conducted with micronized Compound 2 in rat, dogs (beagles), and cynomolgus monkeys. Animals received a 10 mg/kg dose oral dose of compound formulated as a suspension in 0.5% methyl cellulose in water for injection at a target concentration of 1 mg/mL, and administered a dose volume of 10 mL/kg by oral gavage in rats or fasted dogs and via oral delivery in fasted cynomolgus monkeys. The % F for the rats in these studies was 85%, 36% for the dogs, and 19% for the monkeys. FIG. 11 depicts the pharmacokinetic profile for these species.
Three studies were conducted in dogs (beagles). In one study, three fasted dogs were administered 10 mg/kg of a suspension of micronized Compound 2 by gavage. Blood samples were collected from these dogs before dosing and at 0.25, 0.50, 1, 2, 4, 6, 8, 12, and 24 hours post-administration. Blood samples were analyzed to determine plasma levels of Compound 2 by LC/MS/MS. In subsequent studies, pharmacokinetic (PK) parameters were determined following a single oral dose of suspensions of micronized Compound 2 (recrystallized from ethanol) administered to fasted dogs at dose levels of 10, 100, 300, 600, or 1000 mg/kg. Blood samples were taken before dosing and at 0.5, 1, 2, 4, 8, 12, 24 and 48 hours post-dosing and analyzed to determine plasma levels of Compound 2.

[4] = PK comparison of capsule and suspension formulations; conditions: monkey, in vivo, po, 250 mg, monkeys
Method: Another study was conducted to compare the PK parameters of capsule and suspension formulations of Compound 2. All monkeys were dosed with 250 mg Compound 2. Two groups were dosed with the capsule formulation: one fasted and one allowed food ad libitum. The animals that received the suspension formulation were dosed using a nasogastric tube and were fasted. […] When the PK profile of the capsule formulation was compared in both fasted and fed monkeys, the bioavailability of Compound 2 capsules was numerically greater in fasted monkeys.

[5] = test system: cynomolgus monkeys; assay: Hepatotoxicity safety profile, serum biomarkers; assay type: in vivo; conditions: for ALP d28 / ALT d28 / AST d28 / GGT d28: day 28
Method: Compound 2 in the vehicle (0.5% methylcellulose, 400 cps) was administered via nasogastric intubation once daily for 28 or 29 consecutive days to 4 groups of cynomolgus monkeys. Each group received one dose level. Dosage levels were 10, 30, 100, and 300 mg/kg/day per group. […] The dosage volume was 10 ml/kg for all groups. Hepatoxicity was measured via the serum biomarkers of alanine aminotransferease [ALT], aspartate aminotransferase [AST], alkaline phosphastase [ALP] and gamma-glutamyl transferase [GGT] which represent hepatotoxicity or bile duct injury.

[6] = molecular target: CYP2C19 (Homo sapiens, UniProt P33261); assay: in vitro; conditions: probe Mephenytoin
Chain of CYP2C19 (P33261 whole entry): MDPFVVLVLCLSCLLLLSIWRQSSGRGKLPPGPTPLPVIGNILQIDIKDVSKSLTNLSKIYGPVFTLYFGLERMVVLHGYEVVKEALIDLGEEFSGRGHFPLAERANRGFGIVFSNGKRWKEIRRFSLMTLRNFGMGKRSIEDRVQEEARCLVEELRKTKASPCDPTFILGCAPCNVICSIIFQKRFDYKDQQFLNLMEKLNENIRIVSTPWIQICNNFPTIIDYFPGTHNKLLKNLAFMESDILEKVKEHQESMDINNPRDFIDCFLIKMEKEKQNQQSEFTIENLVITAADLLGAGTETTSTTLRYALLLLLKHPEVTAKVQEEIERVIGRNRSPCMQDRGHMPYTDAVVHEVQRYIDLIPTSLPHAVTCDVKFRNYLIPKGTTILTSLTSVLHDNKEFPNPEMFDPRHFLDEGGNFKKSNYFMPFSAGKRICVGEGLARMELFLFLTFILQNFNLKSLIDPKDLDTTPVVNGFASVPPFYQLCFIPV

T1 sequence (Q8BLA8 whole entry): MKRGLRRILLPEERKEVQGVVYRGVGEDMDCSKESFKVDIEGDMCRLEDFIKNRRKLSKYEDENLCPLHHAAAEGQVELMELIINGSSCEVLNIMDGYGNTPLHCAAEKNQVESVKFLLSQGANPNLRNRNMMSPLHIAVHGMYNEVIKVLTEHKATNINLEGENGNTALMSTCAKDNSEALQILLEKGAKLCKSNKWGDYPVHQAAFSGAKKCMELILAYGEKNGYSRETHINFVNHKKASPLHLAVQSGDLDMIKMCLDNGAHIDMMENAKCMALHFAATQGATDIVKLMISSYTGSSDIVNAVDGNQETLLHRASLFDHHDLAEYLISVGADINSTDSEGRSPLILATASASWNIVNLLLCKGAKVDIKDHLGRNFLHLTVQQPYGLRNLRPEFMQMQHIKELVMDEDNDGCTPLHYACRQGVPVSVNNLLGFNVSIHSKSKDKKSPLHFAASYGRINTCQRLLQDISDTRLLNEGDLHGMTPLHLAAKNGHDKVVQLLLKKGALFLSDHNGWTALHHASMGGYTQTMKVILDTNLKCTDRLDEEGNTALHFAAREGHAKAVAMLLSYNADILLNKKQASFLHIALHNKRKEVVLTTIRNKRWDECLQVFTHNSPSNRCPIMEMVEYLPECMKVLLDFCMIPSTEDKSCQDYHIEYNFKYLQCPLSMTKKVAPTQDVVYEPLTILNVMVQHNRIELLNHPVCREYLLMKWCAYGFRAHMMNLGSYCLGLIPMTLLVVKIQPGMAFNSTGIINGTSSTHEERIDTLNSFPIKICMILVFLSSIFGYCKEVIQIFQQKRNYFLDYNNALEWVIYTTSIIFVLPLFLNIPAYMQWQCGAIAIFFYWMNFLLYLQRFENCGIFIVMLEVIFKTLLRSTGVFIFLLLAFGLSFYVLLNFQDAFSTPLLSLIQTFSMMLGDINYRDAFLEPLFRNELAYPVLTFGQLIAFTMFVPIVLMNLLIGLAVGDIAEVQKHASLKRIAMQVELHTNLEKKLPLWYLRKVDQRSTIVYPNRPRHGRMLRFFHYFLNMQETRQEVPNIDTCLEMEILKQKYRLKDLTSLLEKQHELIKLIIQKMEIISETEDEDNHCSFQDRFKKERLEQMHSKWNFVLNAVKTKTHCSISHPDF

fraction unbound at 6 h, 1 μM ([1]; Human plasma): 0.015 | fraction unbound at 6 h, 1 μM ([1]; Sprague dawley rat plasma): 0.047 | IC50 [2]: 26.6 ± 3.3 nM | bioavailability ([3]; beagle, dog, plasma, 10 mg/kg oral, micronized suspension): 36% | Exposures on an AUC and Cmax basis versus dose ([3]; single oral dose 10 to 1000 mg/kg): increased with doses up to 600 mg/kg | bioavailability ([4]; Capsule (fasted)): 13% | bioavailability ([4]; Capsule (fed)): 10% | bioavailability ([4]; Suspension (fasted)): 7.8% | inhibition at 10 µM [6]: 37.1%
SMILES: C[C@@H](C(=O)Nc1ccnc(-c2cnc(N3CCC[C@H]3C(F)(F)F)nc2)n1)n1cnc2c1c(=O)n(C)c(=O)n2C [Compound 2, (S)-2-(1,3-dimethyl-2,6-dioxo-2,3-dihydro-1H-purin-7(6H)-yl)-N-(2′-((S)-2-(trifluoromethyl)pyrrolidin-1-yl)-[2,5′-bipyrimidin]-4-yl)propanamide]
ALP d28 ([5]; 10 mg/kg/day nasogastric): 744.0 U/L | ALT d28 ([5]; 10 mg/kg/day nasogastric): 87.0 U/L | AST d28 ([5]; 10 mg/kg/day nasogastric): 126.0 U/L | GGT d28 ([5]; 10 mg/kg/day nasogastric): 64.0 U/L | ALP d28 ([5]; 30 mg/kg/day nasogastric): 461.0 U/L | ALT d28 ([5]; 30 mg/kg/day nasogastric): 50.0 U/L | AST d28 ([5]; 30 mg/kg/day nasogastric): 72.0 U/L | GGT d28 ([5]; 30 mg/kg/day nasogastric): 49.0 U/L | ALP d28 ([5]; 100 mg/kg/day nasogastric): 532.0 U/L | ALT d28 ([5]; 100 mg/kg/day nasogastric): 61.0 U/L | AST d28 ([5]; 100 mg/kg/day nasogastric): 70.0 U/L | GGT d28 ([5]; 100 mg/kg/day nasogastric): 53.7 U/L | ALP d28 ([5]; 300 mg/kg/day nasogastric): 441.0 U/L | ALT d28 ([5]; 300 mg/kg/day nasogastric): 67.0 U/L | AST d28 ([5]; 300 mg/kg/day nasogastric): 134.0 U/L | GGT d28 ([5]; 300 mg/kg/day nasogastric): 54.8 U/L | serum biomarkers of hepatotoxicity (ALT, AST, ALP, GGT) ([5]; cynomolgus monkeys, once daily for 28 or 29 days): did not elevate the serum biomarkers up to and including a dose of 300 mg/kg
